Experimental data published in patent US7959743B2, “Lithium salts of fatty alcohol sulphates for cleaning boreholes, boring devices and borings” (priority 2004, dated 2011).

Test system: Corophium volutator
Conditions: in vivo

| Substance | Corophium volutator 10 d, LC 50 |
| --- | --- |
| Soya polyol ethoxylate [V3] | 1888 mg/kg |
| C8-10 alkyl-1,5-glucoside [V4] | None after 433 mg/kg |
